Test results: patent US20100080785A1, “DRIED FORMULATIONS” (Zymes, LLC, priority 2008, published 2010)

Experiments:
[1] = stability of the solution on heating to 50-55° C.; format: physicochemical
[2] = stability and shelf life at ambient conditions; format: physicochemical; conditions: ubiquinol
Source text: By contrast, the dry formulations of ubiquinol disclosed herein remains white for weeks at ambient conditions.
By contrast, the dry formulations of omega-3 fatty acid disclosed herein remains odorless for weeks at ambient conditions.

Row | degradation on heating without pH adjustment [1] | Compound | oxidation / colour on storage [2]
1 | decomposes and undergoes hydrolysis | polyoxyethanyl tocopheryl sebacate [PTS] | 
2 |  | COc1c(O)c(C)c(C/C=C(\C)CC/C=C(\C)CC/C=C(\C)CC/C=C(\C)CC/C=C(\C)CC/C=C(\C)CC/C=C(\C)CC/C=C(\C)CC/C=C(\C)CCC=C(C)C)c(O)c1OC [bulk ubiquinol, ubiquinol] | gradually oxidizes and develops a yellow hue
